These results are taken from patent US20250325687A1, “CONJUGATE COMPRISING TOLL-LIKE RECEPTOR AGONIST” (MABSOFT THERAPEUTICS (SHANGHAI) CO., LTD., priority 2022, published 2025).

Holding throughout (assay type): cell-based
Assay [1] deals with T1, hTLR7 (human Toll-like receptor 7) (Homo sapiens, UniProt Q9NYK1).
T1 construct: host or cells: HEK-Blue hTLR7 (HEK293-derived reporter cells)
T1 sequence (Q9NYK1 27-1049): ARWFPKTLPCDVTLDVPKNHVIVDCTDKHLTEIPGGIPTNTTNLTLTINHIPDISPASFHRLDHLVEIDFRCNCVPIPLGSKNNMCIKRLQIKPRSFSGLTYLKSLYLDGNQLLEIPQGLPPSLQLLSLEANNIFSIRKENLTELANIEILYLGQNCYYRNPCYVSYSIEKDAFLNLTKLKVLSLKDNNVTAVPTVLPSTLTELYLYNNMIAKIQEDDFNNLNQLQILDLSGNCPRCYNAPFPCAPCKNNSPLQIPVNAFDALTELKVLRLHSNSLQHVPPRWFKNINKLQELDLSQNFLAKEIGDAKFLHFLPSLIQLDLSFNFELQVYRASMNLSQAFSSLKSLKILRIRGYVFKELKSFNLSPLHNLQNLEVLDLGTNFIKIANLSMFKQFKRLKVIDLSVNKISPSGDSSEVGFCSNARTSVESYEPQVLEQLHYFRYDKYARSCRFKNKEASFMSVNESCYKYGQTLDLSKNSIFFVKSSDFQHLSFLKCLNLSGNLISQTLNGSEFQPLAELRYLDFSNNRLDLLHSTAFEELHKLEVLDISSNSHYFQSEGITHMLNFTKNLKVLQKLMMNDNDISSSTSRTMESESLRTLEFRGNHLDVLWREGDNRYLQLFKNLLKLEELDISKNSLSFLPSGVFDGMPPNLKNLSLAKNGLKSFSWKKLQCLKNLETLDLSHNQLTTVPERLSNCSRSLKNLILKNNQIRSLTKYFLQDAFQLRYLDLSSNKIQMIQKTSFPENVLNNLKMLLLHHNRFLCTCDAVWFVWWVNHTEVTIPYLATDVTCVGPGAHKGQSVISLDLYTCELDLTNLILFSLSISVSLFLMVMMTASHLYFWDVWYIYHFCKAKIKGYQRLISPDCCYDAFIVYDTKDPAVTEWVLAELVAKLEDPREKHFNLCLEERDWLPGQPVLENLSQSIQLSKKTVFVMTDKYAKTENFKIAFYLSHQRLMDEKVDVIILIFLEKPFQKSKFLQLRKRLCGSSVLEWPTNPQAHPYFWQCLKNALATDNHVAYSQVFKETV
Nature of the assay: hTLR7 cell assay (HEK-Blue hTLR7 reporter cells). The following applies: 24 hours, OD 650 nm. The method in brief:
(§1)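 HEK-Blue reporter cells in HEK-Blue Detection medium (50000 cells/mL) were exposed to test compounds for 24 hours at 37° C, 5% CO2. Agonism was read from supernatant incubated 1 hour at 37° C with QUANTI-Blue, measured as optical density at 650 nm.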

Assay [2] concerns the target T2, hTLR8 (human Toll-like receptor 8) (Homo sapiens, UniProt Q9NR97).
T2 construct: host or cells: HEK-Blue hTLR8 (HEK293-derived reporter cells)
T2 sequence (Q9NR97 27-1041): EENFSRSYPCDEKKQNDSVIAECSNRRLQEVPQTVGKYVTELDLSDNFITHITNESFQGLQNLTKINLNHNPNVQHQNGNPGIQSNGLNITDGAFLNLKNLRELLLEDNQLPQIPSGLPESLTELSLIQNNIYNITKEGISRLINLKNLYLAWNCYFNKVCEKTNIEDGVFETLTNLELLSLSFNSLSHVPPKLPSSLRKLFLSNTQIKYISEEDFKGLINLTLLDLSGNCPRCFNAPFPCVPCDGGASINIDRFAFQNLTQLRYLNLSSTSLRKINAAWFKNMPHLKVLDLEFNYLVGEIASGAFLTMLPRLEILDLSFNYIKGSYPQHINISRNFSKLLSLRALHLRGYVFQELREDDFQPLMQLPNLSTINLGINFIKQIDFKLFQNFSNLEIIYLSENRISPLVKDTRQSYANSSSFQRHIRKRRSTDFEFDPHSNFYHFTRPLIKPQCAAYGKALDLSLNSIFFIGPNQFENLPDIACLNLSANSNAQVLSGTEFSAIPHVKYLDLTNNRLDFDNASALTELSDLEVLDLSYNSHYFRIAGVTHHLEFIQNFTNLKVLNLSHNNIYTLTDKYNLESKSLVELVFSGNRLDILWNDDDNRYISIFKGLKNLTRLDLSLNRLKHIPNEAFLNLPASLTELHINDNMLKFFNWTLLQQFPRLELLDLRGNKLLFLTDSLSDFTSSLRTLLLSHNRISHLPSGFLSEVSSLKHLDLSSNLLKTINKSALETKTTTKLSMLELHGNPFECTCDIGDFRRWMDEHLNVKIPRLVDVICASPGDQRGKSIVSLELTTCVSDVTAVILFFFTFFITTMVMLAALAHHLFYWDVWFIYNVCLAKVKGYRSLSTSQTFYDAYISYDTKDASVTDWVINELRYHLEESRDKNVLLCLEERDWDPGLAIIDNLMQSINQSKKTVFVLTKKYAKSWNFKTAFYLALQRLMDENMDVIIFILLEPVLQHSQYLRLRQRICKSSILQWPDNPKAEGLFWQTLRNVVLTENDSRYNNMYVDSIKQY
Nature of the assay: hTLR8 cell assay (HEK-Blue hTLR8 reporter cells). The following applies: 24 hours, OD 650 nm. Put shortly:
as §1

Assay [3] relates to human PBMC (human peripheral blood mononuclear cells). Nature of the assay: PBMC screening assay: induction of TNF-α production. The following applies: read-out: EC50 (μM) TNF-α (hPBMC). Put shortly:
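Human PBMC were rested for 24 h, then treated in duplicate with compound at 2.54 nM to 50 μM for 24 h at 37 °C. Secreted TNF-α in the cleared supernatant was quantified by ELISA, read at OD 450 nm.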

Where [4] appears, read: human PBMC, 24 hours, TNF-α by ELISA, class symbols.

Molecules are shown by their SMILES. pEC50: −log10 of the molar value. Like-named read-outs stand apart in the source and are kept apart here.

As for `CCCCc1nc2c(N)nc3cc(Cc4cccc(CNC(=O)CN)c4)ccc3c2n1CC(C)(C)O` [Compound 66, 2-amino-N-(3-((4-amino-2-butyl-1-(2-hydroxy-2-methylpropyl)-1H-imidazo[4,5-c]quinolin-7-yl)methyl)benzyl)acetamide], the pEC50 – broadly, −log10 of the EC50, conventionally taken in molar units – in assay [1] was 5.00 to 6.00; in assay [2], greater than 5.30. Moreover, the EC50 (as a rule, the concentration at which the effect is half-maximal) in assay [3] (setting [4]) was greater than 0.64 µM.

With `CCCC(F)(F)c1nc2c(N)nc3cc(Cc4cccc(CN)c4)ccc3c2n1CC(C)(C)O` [Compound 52, 1-(4-amino-7-(3-(aminomethyl)benzyl)-2-(1,1-difluorobutyl)-1H-imidazo[4,5-c]quinolin-1-yl)-2-methylpropan-2-ol], the pEC50 in assay [1] was 5.00 to 6.00; in assay [2], greater than 5.30. Also, the EC50 in assay [3] (setting [4]) is greater than 0.64 µM.

Regarding `CCOCc1nc2c(N)nc3cc(Cc4cccc(N5CCNCC5)c4)ccc3c2n1CC(C)(C)O` [Compound 153, 1-(4-amino-2-(ethoxymethyl)-7-(3-(piperazin-1-yl)benzyl)-1H-imidazo[4,5-c]quinolin-1-yl)-2-methylpropan-2-ol], the values for the pEC50 in assay [1] and in assay [2] were greater than 6.00 and greater than 5.30, respectively. Moreover, the concentration for a half-maximal effect (EC50) in assay [3] (setting [4]) was less than 0.64 µM.

Turning to `CCOCc1nc2c(N)nc3cc(Cc4ccc(CCCN)cc4)ccc3c2n1CC(C)(C)O` [Compound 3, 1-(4-amino-7-(4-(3-aminopropyl)benzyl)-2-(ethoxymethyl)-1H-imidazo[4,5-c]quinolin-1-yl)-2-methylpropan-2-ol], the pEC50 in assay [1] is 5.00 to 6.00; in assay [2], 4.70 to 5.30. The EC50 in assay [3] (Homo sapiens, PBMC, 24 h) was greater than 0.64 µM.

As to `CCCCc1nc2c(N)nc3cc(Cc4cccc(N5CCNCC5)c4)ccc3c2n1CC(C)(C)O` [Compound 63, 1-(4-amino-2-butyl-7-(3-(piperazin-1-yl)benzyl)-1H-imidazo[4,5-c]quinolin-1-yl)-2-methylpropan-2-ol], the results for the pEC50 in assay [1] and in assay [2] were greater than 6.00 and greater than 5.30, respectively. Besides, the EC50 in assay [3] (setting [4]) is less than 0.64 µM.
